Test results reported in patent US20210261570A1, “ANTIBIOTIC RESISTANCE BREAKERS” (KING'S COLLEGE LONDON, priority 2017, published 2021).
In brackets after ≈: the same amount, converted by molar mass. Entries after “also recorded” stand apart in the source; their conditions may differ. Structures can show the parent of a compound that is named as a salt.

Experiments:
[1] = test system: S. aureus SA1; type: cell-based
[2] = test system: S. haemolyticus SH1; assay: MIC, extended Gram-positive panel; type: cell-based
[3] = test system: S. aureus SA9; assay: MIC, extended Gram-positive panel; type: cell-based
[4] = test system: E. faecium EF2; assay: MIC, extended Gram-positive panel; type: cell-based
[5] = test system: S. aureus SA2; type: cell-based
[6] = test system: S. aureus SA4; assay: MIC, extended Gram-positive panel; type: cell-based
[7] = test system: S. aureus SA3; assay: MIC, extended Gram-positive panel; type: cell-based
[8] = test system: E. faecalis EF1; assay: MIC, extended Gram-positive panel; type: cell-based
[9] = test system: S. aureus SA5; assay: MIC, extended Gram-positive panel; type: cell-based
[10] = test system: S. epidermidis SE1; assay: MIC, extended Gram-positive panel; type: cell-based
[11] = test system: S. aureus SA6; assay: MIC, extended Gram-positive panel; type: cell-based
[12] = test system: MSSA 9144 strain; assay: Reserpine assay; type: cell-based, S. aureus; conditions: compound at 0.25×MIC with reserpine
Description: (§1) A simple plate based method was used as described by Beyer et al. (24). […] Reserpine was added at a final concentration of 10 µg/mL (made up at 40 μg/mL in TSB, 50 μL per well). The bacteria were added at an OD of 0.01 in TSB (100 μL/well). The plate was a normal clear plate as used for MICs. OD was read every 30 minutes for 9 hours (the literature states 7 hours, but this is strain-dependent). Blanks of TSB and water were added to ensure no infections were present.
(§2) The mechanism of inhibition for reserpine involves direct binding to and competitive inhibition of the efflux pump during drug/H^+ antiport. This assay was validated as a method for testing active efflux of fluoroquinolones in Staphylococcus strains by Beyer et al. (24).

[13] = test system: EMRSA 15 strain; assay: Reserpine assay; type: cell-based, S. aureus; conditions: compound at 0.25×MIC with reserpine
Description: as §1, §2

[14] = test system: S. aureus SA7; assay: MIC, extended Gram-positive panel; type: cell-based
[15] = test system: S. aureus SA8; assay: MIC, extended Gram-positive panel; type: cell-based
[16] = test system: S. aureus SA10; assay: MIC, extended Gram-positive panel; type: cell-based
[17] = test system: VSE775; assay: MIC, microdilution broth method; type: cell-based, E. faecalis
[18] = test system: VRE12201; assay: MIC, microdilution broth method; type: cell-based, E. faecalis
[19] = test system: EMRSA16; assay: MIC, microdilution broth method; type: cell-based, Staphylococcus aureus
[20] = test system: MSSA9144; assay: MIC, microdilution broth method; type: cell-based, S. aureus
[21] = test system: EMRSA15; assay: MIC, microdilution broth method; type: cell-based, Staphylococcus aureus
[22] = test system: EC12923; assay: MIC, microdilution broth method; type: cell-based
[23] = test system: Ab17978; assay: MIC, microdilution broth method; type: cell-based
[24] = test system: KP13368; assay: MIC, microdilution broth method; type: cell-based; conditions: in µg/mL
[25] = test system: M6; assay: MIC, microdilution broth method; type: cell-based
[26] = test system: PA01; assay: MIC, microdilution broth method; type: cell-based, Pseudomonas aeruginosa
[27] = test system: AYE; assay: MIC, microdilution broth method; type: cell-based, Acinetobacter baumannii; conditions: Normal (without PMBN), in µg/mL
[28] = test system: VRE12204; assay: MIC, microdilution broth method; type: cell-based, E. faecium

CCn1cc(C(=O)O)c(=O)c2cc(F)c(N3CCN(Cc4cccc5ccccc45)CC3)cc21 [ML-77-021]
MIC ([1]; S. aureus SA1): 4 µg/mL (≈ 8.7 µM) | Fold decrease ([1]; SA1, MIC of ML-77-005 vs CIP, of ML-77-021 vs NOR): ≥32 | MIC ([2]; S. haemolyticus SH1): 4 µg/mL (≈ 8.7 µM) | Fold decrease ([2]; SH1, MIC of ML-77-005 vs CIP, of ML-77-021 vs NOR): 32 | MIC ([3]; S. aureus SA9): 2 µg/mL (≈ 4.35 µM) | Fold decrease ([3]; SA9, MIC of ML-77-005 vs CIP, of ML-77-021 vs NOR): ≥64 | MIC ([4]; E. faecium EF2, in µg/mL): 2-4 | Fold decrease ([4]; EF2, MIC of ML-77-005 vs CIP, of ML-77-021 vs NOR): ≥32 | MIC ([5]; S. aureus SA2, in µg/mL): 1 | Fold decrease ([5]; SA2, MIC of ML-77-005 vs CIP, of ML-77-021 vs NOR): 8-64 | MIC ([6]; S. aureus SA4): 2 µg/mL (≈ 4.35 µM) | Fold decrease ([6]; SA4, MIC of ML-77-005 vs CIP, of ML-77-021 vs NOR): 32 | MIC ([7]; S. aureus SA3): 2 µg/mL (≈ 4.35 µM) | Fold decrease ([7]; SA3, MIC of ML-77-005 vs CIP, of ML-77-021 vs NOR): 32 | MIC ([8]; E. faecalis EF1): 4 µg/mL (≈ 8.7 µM) | Fold decrease ([8]; EF1, MIC of ML-77-005 vs CIP, of ML-77-021 vs NOR): ≥32 | MIC ([9]; S. aureus SA5): 2 µg/mL (≈ 4.35 µM) | Fold decrease ([9]; SA5, MIC of ML-77-005 vs CIP, of ML-77-021 vs NOR): ≥64 | MIC ([10]; S. epidermidis SE1, in µg/mL): 1 | Fold decrease ([10]; SE1, MIC of ML-77-005 vs CIP, of ML-77-021 vs NOR): 1-4 | MIC ([11]; S. aureus SA6): 2 µg/mL (≈ 4.35 µM) | Fold decrease ([11]; SA6, MIC of ML-77-005 vs CIP, of ML-77-021 vs NOR): ≥64 | efflux by the strain (reserpine assay) [12]: cannot be effluxed; also recorded: not effluxed | efflux by the strain (reserpine assay) [13]: cannot be effluxed | efflux by the strain (reserpine assay) ([13]; listed as napthyl-linked norfloxacin): not effluxed | MIC ([14]; S. aureus SA7): 2 µg/mL (≈ 4.35 µM) | Fold decrease ([14]; SA7, MIC of ML-77-005 vs CIP, of ML-77-021 vs NOR): ≥64 | MIC ([15]; S. aureus SA8): 2 µg/mL (≈ 4.35 µM) | Fold decrease ([15]; SA8, MIC of ML-77-005 vs CIP, of ML-77-021 vs NOR): 64 | MIC ([16]; S. aureus SA10, in µg/mL): 2 | Fold decrease ([16]; SA10, MIC of ML-77-005 vs CIP, of ML-77-021 vs NOR): 64

CCn1cc(C(=O)O)c(=O)c2cc(F)c(N3CCN(Cc4ccc(F)c5ccccc45)CC3)cc21 [ML-77-49]
MIC ([17]; VSE775): 8 µg/mL (≈ 16.8 µM) | MIC ([18]; VRE12201, in µg/mL): 16 | MIC ([19]; EMRSA16): 8 µg/mL (≈ 16.8 µM) | MIC [20]: 8 µg/mL (≈ 16.8 µM) | MIC ([21]; EMRSA15, in µg/mL): 8

Cc1cc(N2CCN(c3c(F)cc4c(=O)c(C(=O)O)cn5c4c3OC[C@@H]5C)CC2)nc(C(C)C)n1 [ML-83-012, (S)-9-fluoro-10-(4-(2-isopropyl-6-methylpyrimidin-4-yl)piperazin-1-yl)-3-methyl-7-oxo-2,3-dihydro-7H-[1,4]oxazino[2,3,4-ij]quinoline-6-carboxylic Acid Hydrochloride]
MIC ([17]; Enterococcus faecalis): 0.5 µg/mL | MIC ([17]; VSE775, Gram-positive): 1 µg/mL | MIC ([22]; Escherichia coli, Escherichia coli (EC12923)): 4 µg/mL | MIC ([18]; Enterococcus faecalis, Enterococcus (VRE12201)): ≤ 0.125 µg/mL | MIC ([18]; VRE12201, Gram-positive, in µg/mL): 0.5-1 | MIC ([23]; Acinetobacter baumannii, Acinetobacter baumannii (AB17978)): 8 µg/mL | MIC ([24]; Gram-negative): 64 | MIC ([19]; EMRSA16, Gram-positive): 16 µg/mL | MIC ([19]; Staphylococcus aureus, Staphylococcus aureus (EMRSA16)): 2 µg/mL | MIC ([25]; Klebsiella pneumoniae, Klebsiella pneumoniae (M6)): 16 µg/mL | MIC ([25]; M6, Gram-negative, in µg/mL): 16 | MIC ([26]; Pseudomonas aeruginosa, Pseudomonas aeruginosa (PA01)): 32 µg/mL | MIC ([21]; EMRSA15, Gram-positive, in µg/mL): 16 | MIC ([21]; Staphylococcus aureus): 2 µg/mL

C[C@H]1COc2c(N3CCC(n4cccn4)CC3)c(F)cc3c(=O)c(C(=O)O)cn1c23 [ML-83-041, (S)-10-(4-(1H-pyrazol-1-yl)piperidin-1-yl)-9-fluoro-3-methyl-7-oxo-2,3-dihydro-7H-[1,4]oxazino[2,3,4-ij]quinoline-6-carboxylic Acid]
MIC ([22]; EC12923, Normal (without PMBN), in µg/mL): 1-2 | MIC [27]: 64-128 | MIC ([24]; Normal (without PMBN)): 16-32

CCn1cc(C(=O)O)c(=O)c2cc(F)c(N3CCN(Cc4ccc(S(=O)(=O)NCCc5c[nH]c6ccccc56)cc4)CC3)cc21 [ML-77-146]
MIC +PMBN ([23]; Ab17978, +PMBN): 4 | MIC +PMBN ([25]; M6, +PMBN): 28 | MIC +PMBN ([26]; PA01, +PMBN): 0.25

CCn1cc(C(=O)O)c(=O)c2cc(F)c(N3CCN(Cc4ccc5ccccc5c4)CC3)cc21 [ML-77-31]
MIC ([17]; VSE775): 4 µg/mL (≈ 8.7 µM) | MIC [28]: 2 µg/mL (≈ 4.35 µM) | MIC ([18]; VRE12201, in µg/mL): 4 | MIC ([19]; EMRSA16): 4 µg/mL (≈ 8.7 µM) | MIC ([25]; M6, in µg/mL): 16-32 | MIC [20]: 0.25 µg/mL (≈ 0.544 µM) | MIC ([21]; EMRSA15, in µg/mL): 4
